Structures can show the parent of a compound that is named as a salt. Where two headings read alike, the source gives them in different places.
How the values were obtained:
[1] = target: T1, recombinant human plasma kallikrein (Human PKal) (Homo sapiens, UniProt P03952); assay: Inhibitory effect of test compounds on plasma kallikrein (PKal), fluorogenic substrate Z-FR-AMC; type: biochemical; conditions: 10 µM Z-FR-AMC, 10 min pre-incubation
T1 construct: Gly20-Ala638 derived from NS0- with a 60-His appendage at the C-terminus; His tag ('60-His' [sic]) (C); purchased R&D Systems 2497-SE; host or cells: mouse myeloma cell line NS0
Protocol: 1. PKal reaction buffer: 25 mM Tris-HCl (trometamol-HCl), pH 8.0, 100 mM NaCl, […], 0.01 % Brij35 (polyoxyethylene lauryl ether), and 1 % DMSO (final concentration).
2. Enzyme: PKal (R&D Systems Cat# 2497-SE), recombinant human plasma kallikrein expressed in a mouse myeloma cell line, Gly20-Ala638 derived from NS0- with a 60-His appendage at the C-terminus, MW=70 kDa. Activation of the enzyme: (1) rhPKal was diluted to 200 µg/mL activation buffer (100 mM Tris, 10 mM CaCl2, 150 mM NaCl, pH 7.5 (TCN)); (2) thermolysin was diluted to 20 µg/mL activation buffer; (3) rhPKal (200 µg/mL) and thermolysin (20 µg/mL) were mixed in equal volumes; (4) the mixture was incubated at 37° C. for 30 min; (5) then the reactions was stopped with 50 µM EDTA (ethylenediaminetetraacetic acid).
3. Substrate (Enzo Cat# P-139): 10 µM Z-FR-AMC (AMC: 7-amino-4-methylcoumarin).
4. Detection: EnVision (PE), Ex/Em 355/460 nm.
5. Reaction process: (1) The specified enzymes and substrates were prepared in freshly prepared activation buffer; (2) the enzyme solution was injected into the reaction hole; (3) the DMSO solution of the test compound was injected into the reaction mixture, and controlled within the nanoliter range using acoustic technology (Echo 550, LabCyte Inc. Sunnyvale, CA); (4) after 10 min of pre-incubation, the substrate solution was injected into the reaction hole to start the reaction; (5) the activity of the enzyme could be indicated by the increase of the fluorescence signal of the fluorescent labeled peptide substrate, which was monitored every 5 min and lasted for 120 min at room temperature; (6) data analysis: the slope* (fluorescence signal/time) of the straight line was measured, then the slope could be calculated by excel and the curve could be fitted by Prism software.

[2] = Pharmacokinetic test in rats after intravenous and intragastric administration (plasma, LC-MS/MS); type: in vivo; conditions: male, SD, rat; for bioavailability: read-out: Bioavailability F; for AUC(0-inf): read-out: Curve area (o-inf) AUC0-inf; for AUC(0-t): read-out: Curve area (o-t) AUC0-last; for half-life: read-out: Half-life T½ (converted); for Tmax: read-out: Peak time Tmax; for Cmax: read-out: Plasma drug concentration Cmax; for Vd: read-out: Apparent volume of distribution Vdss; for clearance: read-out: Clearance rate Cl
Protocol: Male SD rats were used as test animals, and LC-MS/MS method was used to determine the drug concentrations in plasma of rats at different times after intravenous and intragastric administration of test compounds. The pharmacokinetic behaviors of the compounds in rats were studied and the pharmacokinetic characteristics were evaluated.
2.2 Test animals: 28 healthy adult male SD rats were divided into 14 groups with 2 rats in each group. Animals were purchased from Beijing Vital River Laboratory Animal Technology Co., Ltd.
(§1) An appropriate amount of sample was weighed, and an appropriate amount of DMSO, polyoxyethylene castor oil and sterile water for injection were added in sequence according to the volume ratio of 10:10:80, then the mixture was stirred and sonicated to reach a clear state of 0.5 mg/mL for intravenous administration.
as §1, with “clear or suspension” for “clear”, “0.4” for “0.5”, “intragastric” for “intravenous”
as §1, with “3” for “0.5”
2.4 Administration: 28 male SD rats were divided into 14 groups, after fasting for one night, the intravenous administration group was administered with an administration volume of 2 mL/kg and a dose of 1 mg/kg; the intragastric administration group 1 was administered with an administration volume of 5 mL/kg and a dose of 2 mg/kg. The intragastric administration group 2 was administered with an administration volume of 10 mL/kg and a dose of 30 mg/kg.
After the compound was administered intravenously to male SD rats, 40 µL of blood was collected at 0.0833, 0.25, 0.5, 1, 2, 4, 8 and 24 hours, respectively, and placed in tubes containing 2 µL of EDTA-K2. After the compound was administered in the intragastric administration group, 40 µL of blood was collected at 0.25, 0.5, 1, 2, 4, 6, 10 and 24 hours, respectively, and placed in tubes containing 2 µL of EDTA-K2. The tubes were centrifuged at 4000 rpm for 15 minutes to separate the plasma, and stored at -60° C. Animals were allowed to eat 2 hours after administration.
LC-MS/MS method was used to determine the content of the test compounds in the plasma of rats after intravenous and intragastric administration. The linear range of the method was 2.00 - 6000 nmol/L; plasma samples were treated with acetonitrile to precipitate protein, and then analyzed.

[3] = po, intragastric administration (group 1), nominal 2 mg/kg (actual dose in c2)
[4] = intravenous administration, nominal 1 mg/kg (actual dose in c2)
[5] = po, intragastric administration (group 2), nominal 30 mg/kg (actual dose in c2)

T1 sequence (P03952 20-638): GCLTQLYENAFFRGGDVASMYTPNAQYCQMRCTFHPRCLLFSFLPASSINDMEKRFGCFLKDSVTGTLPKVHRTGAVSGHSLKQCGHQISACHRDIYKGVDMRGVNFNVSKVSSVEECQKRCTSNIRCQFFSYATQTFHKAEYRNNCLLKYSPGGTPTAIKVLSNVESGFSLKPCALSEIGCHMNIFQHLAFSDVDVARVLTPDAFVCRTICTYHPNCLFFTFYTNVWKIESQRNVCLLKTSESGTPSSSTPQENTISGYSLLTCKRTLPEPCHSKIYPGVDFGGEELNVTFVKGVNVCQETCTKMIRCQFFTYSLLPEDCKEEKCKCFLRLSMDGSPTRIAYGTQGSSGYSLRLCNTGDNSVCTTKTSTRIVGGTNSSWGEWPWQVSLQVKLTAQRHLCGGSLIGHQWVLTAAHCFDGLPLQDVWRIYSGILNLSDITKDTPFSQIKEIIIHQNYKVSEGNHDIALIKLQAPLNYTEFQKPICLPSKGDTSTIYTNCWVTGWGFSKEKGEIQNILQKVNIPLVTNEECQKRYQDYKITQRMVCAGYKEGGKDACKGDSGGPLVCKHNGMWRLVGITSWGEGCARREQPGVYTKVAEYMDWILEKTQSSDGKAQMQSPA

SMILES | IC50 [1] [nM] | AUC(0-inf) [2, 3] [µM·h] | AUC(0-t) [2, 3] [µM·h] | half-life [2, 3] [min] | Tmax [2, 3] [min] | Cmax [2, 3] [nM] | other results
COc1ccc(F)c(CNC(=O)c2cn(Cc3ccc(Cn4ccccc4=O)cc3)nc2C2CNC2)c1F [Hydrochloride of compound 11] | 0.269 | – | – | – | – | – | –
COc1ccnc(CNC(=O)c2cn(Cc3ccc(Cn4cc(F)ccc4=O)cc3)nc2C2CN(CC(F)(F)F)C2)c1F [Compound 15] | 2.24 | – | – | – | – | – | –
COc1ccc(F)c(CNC(=O)c2cn(Cc3ccc(Cn4cc(F)ccc4=O)nc3)nc2C2COC2)c1F [Compound 6] | 2.63 | 0.661 | 0.653 | 140 | 22.2 | 650 | –
COc1ccc(F)c(CNC(=O)c2cn(Cc3ccc(Cn4ccccc4=O)c(F)c3)nc2C2COC2)c1F [Compound 7] | 0.552 | – | – | – | – | – | AUC(0-inf) [2, 5]: 1.93 µM·h; AUC(0-t) [2, 5]: 1.84 µM·h; half-life [2, 5]: 157 min; Tmax [2, 5]: 30 min; Cmax [2, 5]: 813 nM
COc1ccc(F)c(CNC(=O)c2cn(Cc3ccc(Cn4ccccc4=O)cn3)nc2C2COC2)c1F [Compound 5] | 18.7 | – | – | – | – | – | –
COc1ccc(F)c(CNC(=O)c2cn(Cc3ccc(Cn4ccccc4=O)cc3)nc2C2CN(S(C)(=O)=O)C2)c1F [Compound 14] | 0.717 | – | – | – | – | – | –
COc1ccnc(CNC(=O)c2cn(Cc3ccc(Cn4cc(F)ccc4=O)cc3)nc2C2COC2)c1F [Compound 2] | 1.53 | 0.246 | 0.241 | 26.2 | 15 | 301 | –
COc1ccc(F)c(CNC(=O)c2cn(Cc3ccc(Cn4ccccc4=O)cc3)nc2C2CN(C)C2)c1F [Hydrochloride of compound 12] | 1.08 | – | – | – | – | – | –
COc1ccc(Cl)c(CNC(=O)c2cn(Cc3ccc(Cn4ccccc4=O)cc3)nc2C2COC2)c1F [Compound 4] | 0.052 | 1.8 | 1.79 | 76.8 | 22.2 | 1550 | bioavailability [2, 3]: 22.7%; Vd [2, 4]: 0.182 L/kg; clearance [2, 4]: 8.26 mL/min/kg; AUC(0-inf) [2, 4]: 3.95 µM·h; AUC(0-t) [2, 4]: 3.94 µM·h; half-life [2, 4]: 36.3 min

The next lines start with results.

IC50 [1] [nM] | AUC(0-inf) [2, 3] [µM·h] | AUC(0-t) [2, 3] [µM·h] | half-life [2, 3] [min] | Tmax [2, 3] [min] | Cmax [2, 3] [nM] | SMILES | other results
0.344 | – | – | – | – | – | COc1ccc(F)c(CNC(=O)c2cn(Cc3ccc(Cn4cc(F)ccc4=O)cc3)nc2C2(C)COC2)c1F [Compound 10] | –
0.264 | 2.12 | 2.11 | 82.2 | 30 | 1760 | COc1ccc(Cl)c(CNC(=O)c2cn(Cc3ccc(Cn4cc(F)ccc4=O)cc3)nc2C2COC2)c1F [Compound 3] | bioavailability [2, 3]: 19.3%; Vd [2, 4]: 0.169 L/kg; clearance [2, 4]: 7.85 mL/min/kg; AUC(0-inf) [2, 4]: 5.5 µM·h; AUC(0-t) [2, 4]: 5.49 µM·h; half-life [2, 4]: 42.8 min
2.31 | – | – | – | – | – | COc1ccnc(CNC(=O)c2cn(Cc3ccc(Cn4cc(F)ccc4=O)c(F)c3)nc2C2COC2)c1F [Hydrochloride of compound 18] | –
0.053 | 0.246 | 0.237 | 50.8 | 30 | 230 | COc1ccnc(CNC(=O)c2cn(Cc3ccc(Cn4ccccc4=O)cc3)nc2C2COC2)c1F [Compound 17] | –
0.833 | – | – | – | – | – | COc1ccc(F)c(CNC(=O)c2cn(Cc3ccc(Cn4ccccc4=O)cc3)nc2C2CN(C(C)=O)C2)c1F [Compound 13] | –
1.03 | – | – | – | – | – | COc1ccnc(CNC(=O)c2cn(Cc3ccc(Cn4cc(F)ccc4=O)cc3)nc2C2(C)COC2)c1F [Compound 9] | –
0.62 | 1.94 | 1.93 | 136 | 45 | 1140 | COc1ccc(F)c(CNC(=O)c2cn(Cc3ccc(Cn4ccccc4=O)cc3)nc2C2COC2)c1F [Compound 16] | bioavailability [2, 3]: 22.1%; Vd [2, 4]: 0.2 L/kg; clearance [2, 4]: 7.3 mL/min/kg; AUC(0-inf) [2, 4]: 4.39 µM·h; AUC(0-t) [2, 4]: 4.37 µM·h; half-life [2, 4]: 35.8 min
